The values below are quoted from earlier work in patent US20050065175A1 (Xanodyne Pharmacal, Inc., priority 2003, published 2005).

Structures can show the parent of a compound that is named as a salt.

The conditions of data set [1]: water and ethanol.
The conditions of data set [2]: orally administered tablets, absorption through GI tract.

In the case of `CCC(=O)C(CC(C)N(C)C)(c1ccccc1)c1ccccc1` (stereo not shown) [Methadone hydrochloride], the solubility entry in data set [1] is “soluble in water and ethanol”.
Regarding `CCC(=O)C(CC(C)N(C)C)(c1ccccc1)c1ccccc1` (stereo not shown) [methadone], in data set [2], the “time until methadone can be detected in blood plasma after ingestion” value was not above 30 min. The “bioavailability of oral transmucosal methadone” value (oral cavity fluid pH between about 7 and about 10) is 50-75%. Further, for the setting “oral cavity pH about 8 to about 9”, the “oral bioavailability of methadone” value was not above 75%. Also, the “bioavailability via the oral transmucosal route” value (pH about 6.5 to about 6.9 (normal saliva)) is listed as “about 34%”. For the same molecule, the “bioavailability via the oral mucosa” value (pH of about 8.5) is reported as “about 75%”. The “portion of the orally bioavailable methadone in the bloodstream” value (within the first 2.5 minutes of delivery to the mucosal tissue) is reported as 50-70%.
